# Measured values: patent publication US5250561A, “Tetrahydroindazole, tetrahydrocyclopentapyrazole, and hexahydrocycloheptapyrazole compounds and their use as HMG-COA reductase inhibitors” (Ortho Pharmaceutical Corporation, priority 1992, dated 1993)
# Structures can show the parent of a compound that is named as a salt.
# Tests used:
# HMG-CoA reductase = test: HMG-CoA Reductase Isolation And Assay (ammonium sulfate precipitated enzyme from rat liver); type: biochemical, male Wistar rats; settings: racemic mixture
# Procedure: Livers were harvested from male Wistar rats (250 g) following a five day feeding with powdered chow containing 2% cholestyramine. Ammonium sulfate precipitated HMG-CoA reductase was prepared from these livers according to the method of Heller, et. al. (Heller, R. A. Shrewsbury, M. A. Journal of Biological Chemistry, 251, 1976, 3815-3822). HMG-CoA reductase activity was measured using a modification of the procedure of Edwards, et. al. (Edwards, P. A., Lemongello, […]. Journal of Lipid Research, 20, 1979, 40-46). The effects of compounds on HMG-CoA reductase activity were determined by combining the compound with the enzyme and preincubating for 10 minutes prior to addition of the substrate […].
# Hep-G2 cells = test: Cell Culture Cholesterol Biosynthesis Assay; type: cell-based; settings: Homo sapiens, racemic mixture
# Procedure: When the cells were 2/3 confluent, they were fed MEM containing Earles salts and delipidated serum protein (DLP) at 5 mg/mL and then incubated for a period of 24 h. DLP was prepared according to the procedure of Rothblat, et. al. ([…]., Howard, B. V. In Vitro (Rockville), 12, 1976, 554-557). The DLP medium was then removed and 3.3 mL of media containing the drug indicated was added. […] Fatty acids were extracted and digitonin precipitable sterols were recovered according the procedure of Kanduch and Saucier (Kandutch, A. A., Saucier, S. E. Journal of Biological Chemistry, 244, 1969, 2299-2305). To adjust for cell number per flask, the cholesterol synthesized was normalized to the fatty acids synthesized and results were expressed as percent inhibition vs. control.
structure (smiles),measurement,setting,value
COc1cccc(CC2CCCc3c2nn(-c2ccc(F)cc2)c3/C=C/[C@@H](O)C[C@@H](O)CC(=O)O)c1 (stereo partly drawn) [Compound 14],IC50,HMG-CoA reductase; Table III,48 nM
same,IC50,"Hep-G2 cells; HepG2, Table III",1090 nM
CC(C)(C)c1ccc(CC2CCCc3c2nn(-c2ccc(F)cc2)c3/C=C/[C@@H](O)C[C@@H](O)CC(=O)O)cc1 (stereo partly drawn) [Compound 21],IC50,HMG-CoA reductase; Table III,16 nM
same,IC50,"Hep-G2 cells; HepG2, Table III",135 nM
Cc1ccc(CC2CCCc3c2nn(-c2ccc(F)cc2)c3/C=C/[C@@H](O)C[C@@H](O)CC(=O)O)cc1 (stereo partly drawn) [Compound 19],IC50,HMG-CoA reductase; Table III,19 nM
same,IC50,"Hep-G2 cells; HepG2, Table III",130 nM
O=C(O)C[C@H](O)C[C@H](O)/C=C/c1c2c(nn1-c1ccc(F)cc1)C(c1ccccc1)CCC2 (stereo partly drawn) [Compound 30],IC50,HMG-CoA reductase; Table III,3100 nM
"O=C(O)C[C@H](O)C[C@H](O)/C=C/c1c2c(nn1-c1ccc(F)cc1)C(Cc1ccc(-c3ccccc3)cc1)CCC2 (stereo partly drawn) [Compound 1, (E)-(3RS,5SR)-7-[7-[(1,1'-Biphenyl)-4-ylmethyl]-2-(4-fluorophenyl)-4,5,6,7-tetrahydro-2H-indazol-3-yl]-3,5-dihydroxy-6-heptenoic acid.Sodium salt.Dihydrate]",IC50,HMG-CoA reductase; Table III,2.7 nM
same,IC50,"Hep-G2 cells; HepG2, Table III",240 nM
O=C(O)C[C@H](O)C[C@H](O)/C=C/c1c2c(nn1-c1ccc(F)cc1)C(CCc1ccccc1)CCC2 (stereo partly drawn) [Compound 32],IC50,HMG-CoA reductase; Table III,334 nM
same,IC50,"Hep-G2 cells; HepG2, Table III",1750 nM
"O=C1C[C@H](O)C[C@@H](/C=C/c2c3c(nn2-c2ccc(F)cc2)C(Cc2ccccc2)CCC3)O1 (mixture of isomers) [Compound 79, (E)-(4RS,6SR)-6-[2-[7-Benzyl-2-(4-fluorophenyl)-4,5,6,7-tetrahydro-2H-indazol-3-yl]ethenyl]-4-hydroxy-3,4,5,6-tetrahydro-2H-pyran-2-one]",IC50,HMG-CoA reductase; Table V,750 nM
same,IC50,"Hep-G2 cells; HepG2, Table V",260 nM
O=C(O)C[C@H](O)C[C@H](O)/C=C/c1nn(Cc2ccc(F)cc2)c2c1CCCCC2 (relative stereo) [Compound 9],IC50,HMG-CoA reductase; Table II,100000 nM
O=C(O)C[C@H](O)C[C@H](O)/C=C/c1c2c(nn1-c1ccc(F)cc1)-c1ccccc1CCC2 (relative stereo) [Compound 36],IC50,HMG-CoA reductase; Table III,2100 nM
CC(C)(C)c1ccc(CC2CCCc3c2nn(-c2ccc(F)cc2)c3/C=C/[C@@H]2C[C@@H](O)CC(=O)O2)cc1 (stereo partly drawn) [Compound 82],IC50,HMG-CoA reductase; Table V,70 nM
same,IC50,"Hep-G2 cells; HepG2, Table V",230 nM
O=C(O)C[C@H](O)C[C@H](O)/C=C/c1c2c(nn1-c1ccc(F)cc1)-c1ccccc1CC2 (relative stereo) [Compound 22],IC50,HMG-CoA reductase; Table III,13000 nM
O=C1C[C@H](O)C[C@@H](/C=C/c2c3c(nn2-c2ccc(F)cc2)CCCC3)O1 (relative stereo) [Compound 83],IC50,HMG-CoA reductase; Table V,9000 nM
O=C(O)C[C@H](O)C[C@H](O)/C=C/c1c2c(nn1-c1ccc(F)cc1)C(Cc1ccc(F)cc1)CCC2 (stereo partly drawn) [Compound 17],IC50,HMG-CoA reductase; Table III,150 nM
same,IC50,"Hep-G2 cells; HepG2, Table III",700 nM
O=C(O)C[C@H](O)C[C@H](O)/C=C/c1c2c(nn1Cc1ccc(F)cc1)CCCCC2 (relative stereo) [Compound 38],IC50,HMG-CoA reductase; Table III,23000 nM
COc1ccc(CC2CCCc3c2nn(-c2ccc(F)cc2)c3/C=C/[C@@H](O)C[C@@H](O)CC(=O)O)cc1OC (stereo partly drawn) [Compound 15],IC50,HMG-CoA reductase; Table III,168 nM
same,IC50,"Hep-G2 cells; HepG2, Table III",3900 nM
O=C(O)C[C@H](O)C[C@H](O)/C=C/c1c2c(nn1-c1ccc(F)cc1)C(Cc1ccc(Cl)cc1)CCC2 (stereo partly drawn) [Compound 16],IC50,HMG-CoA reductase; Table III,58 nM
same,IC50,"Hep-G2 cells; HepG2, Table III",360 nM
O=C(O)C[C@H](O)C[C@H](O)/C=C/c1nn(-c2ccc(F)cc2)c2c1CCCC2Cc1ccc(F)cc1 (stereo partly drawn) [Compound 3],IC50,HMG-CoA reductase; Table II,31000 nM
same,IC50,"Hep-G2 cells; HepG2, Table II",27000 nM
O=C1C[C@H](O)C[C@@H](/C=C/c2c3c(nn2-c2ccc(F)cc2)C(Cc2ccc4ccccc4c2)CCC3)O1 (stereo partly drawn) [Compound 81],IC50,"Hep-G2 cells; HepG2, Table V",390 nM
O=C(O)C[C@H](O)C[C@H](O)/C=C/c1c2c(nn1-c1ccc(F)cc1)C(C1CCCCC1)CCC2 (stereo partly drawn) [Compound 23],IC50,HMG-CoA reductase; Table III,7700 nM
COc1ccc(CC2CCCc3c2nn(-c2ccc(F)cc2)c3/C=C/[C@@H](O)C[C@@H](O)CC(=O)O)cc1 (stereo partly drawn) [Compound 20],IC50,HMG-CoA reductase; Table III,14 nM
same,IC50,"Hep-G2 cells; HepG2, Table III",460 nM
O=C(O)C[C@H](O)C[C@H](O)/C=C/c1c2c(nn1-c1ccc(Cl)cc1)CCCC2 (relative stereo) [Compound 26],IC50,HMG-CoA reductase; Table III,8800 nM
C/C(=C\c1c2c(nn1-c1ccc(F)cc1)CCCC2)[C@@H](O)C[C@@H](O)CC(=O)O (relative stereo) [Compound 27],IC50,HMG-CoA reductase; Table III,2700 nM
COC(=O)C[C@H](O)C[C@H](O)/C=C/c1c2c(nn1-c1ccc(F)cc1)C(Cc1ccc3ccccc3c1)CCC2 (stereo partly drawn) [Compound 42],IC50,"Hep-G2 cells; HepG2, Table I",365 nM
CC1CCCc2c1nn(-c1ccc(F)cc1)c2/C=C/[C@@H](O)C[C@@H](O)CC(=O)O (stereo partly drawn) [Compound 28],IC50,HMG-CoA reductase; Table III,1100 nM
CCC(C)C1CCCc2c1nn(-c1ccc(F)cc1)c2/C=C/[C@@H](O)C[C@@H](O)CC(=O)O (stereo partly drawn) [Compound 35],IC50,HMG-CoA reductase; Table III,1000 nM
CCOC(=O)C[C@H](O)C[C@H](O)/C=C/c1c2c(nn1-c1ccc(F)cc1)C(Cc1ccc(C(C)(C)C)cc1)CCC2 (stereo partly drawn) [Compound 64],IC50,HMG-CoA reductase; Table IV,30 nM
O=C(O)C[C@H](O)C[C@H](O)/C=C/c1nn(-c2ccc(F)cc2)c2c1CCC2 (relative stereo) [Compound 2],IC50,HMG-CoA reductase; Table II,100000 nM
CCOC(=O)C[C@H](O)C[C@H](O)/C=C/c1c2c(nn1-c1ccc(F)cc1)C(Cc1ccc(Cl)cc1)CCC2 (stereo partly drawn) [Compound 60],IC50,"Hep-G2 cells; HepG2, Table IV",460 nM
CCOC(=O)C[C@H](O)C[C@H](O)/C=C/c1c2c(nn1-c1ccc(F)cc1)C(Cc1ccc(C)cc1)CCC2 (stereo partly drawn) [Compound 62],IC50,HMG-CoA reductase; Table IV,70 nM
same,IC50,"Hep-G2 cells; HepG2, Table IV",200 nM
CCC1CCCc2c(/C=C/[C@@H](O)C[C@@H](O)CC(=O)O)nn(-c3ccc(F)cc3)c21 (stereo partly drawn) [Compound 5],IC50,HMG-CoA reductase; Table II,35000 nM
CCOC(=O)C[C@H](O)C[C@H](O)/C=C/c1c2c(nn1-c1ccc(F)cc1)C(Cc1cccc(OC)c1)CCC2 (stereo partly drawn) [Compound 58],IC50,HMG-CoA reductase; Table IV,210 nM
same,IC50,"Hep-G2 cells; HepG2, Table IV",800 nM
O=C(O)C[C@H](O)C[C@H](O)/C=C/c1nn(-c2ccc(F)cc2)c2c1CCCC2CC=Cc1ccccc1 (stereo partly drawn) [Compound 8],IC50,HMG-CoA reductase; Table II,3000 nM
COC(=O)C[C@H](O)C[C@H](O)/C=C/c1c2c(nn1-c1ccc(F)cc1)C(Cc1ccc(C(C)C)cc1)CCC2 (stereo partly drawn) [Compound 43],IC50,"Hep-G2 cells; HepG2, Table I",120 nM
O=C(O)C[C@H](O)C[C@H](O)/C=C/c1c2c(nn1-c1ccc(F)cc1)C(Cc1ccccc1)CCC2 (stereo partly drawn) [Compound 31],IC50,HMG-CoA reductase; Table III,85 nM
same,IC50,"Hep-G2 cells; HepG2, Table III",220 nM
CC1CCCc2c(/C=C/[C@@H](O)C[C@@H](O)CC(=O)O)nn(-c3ccc(F)cc3)c21 (stereo partly drawn) [Compound 6],IC50,HMG-CoA reductase; Table II,100000 nM
O=C(O)C[C@H](O)C[C@H](O)/C=C/c1c2c(nn1-c1ccc(F)cc1)C(CCCc1ccccc1)CCC2 (stereo partly drawn) [Compound 33],IC50,HMG-CoA reductase; Table III,160 nM
same,IC50,"Hep-G2 cells; HepG2, Table III",1100 nM
CCC(CC)CC1CCCc2c1nn(-c1ccc(F)cc1)c2/C=C/[C@@H]1C[C@@H](O)CC(=O)O1 (stereo partly drawn) [Compound 80],IC50,HMG-CoA reductase; Table V,29000 nM
O=C(O)C[C@H](O)C[C@H](O)/C=C/c1nn(-c2ccc(F)cc2)c2c1CCCC2C1CCCCC1 (stereo partly drawn) [Compound 4],IC50,HMG-CoA reductase; Table II,47000 nM
O=C(O)C[C@H](O)C[C@H](O)/C=C/c1c2c(nn1-c1ccc(F)cc1)CCC2 (relative stereo) [Compound 10],IC50,HMG-CoA reductase; Table III,5100 nM
CCCC1CCCc2c1nn(-c1ccc(F)cc1)c2/C=C/[C@@H](O)C[C@@H](O)CC(=O)O (stereo partly drawn) [Compound 29],IC50,HMG-CoA reductase; Table III,1300 nM
CCC1CCCc2c1nn(-c1ccc(F)cc1)c2/C=C/[C@@H](O)C[C@@H](O)CC(=O)O (stereo partly drawn) [Compound 24],IC50,HMG-CoA reductase; Table III,1000 nM
O=C(O)C[C@H](O)C[C@H](O)/C=C/c1c2c(nn1-c1ccc(F)cc1)CCCC2 (relative stereo) [Compound 25],IC50,HMG-CoA reductase; Table III,2500 nM
O=C(O)C[C@H](O)C[C@H](O)/C=C/c1c2c(nn1-c1ccc(F)cc1)CCCCC2 (relative stereo) [Compound 37],IC50,HMG-CoA reductase; Table III,3800 nM
O=C(O)C[C@H](O)C[C@H](O)/C=C/c1nn(-c2ccc(F)cc2)c2c1CCCC2CCc1ccccc1 (stereo partly drawn) [Compound 7],IC50,"Hep-G2 cells; HepG2, Table II",> 10000 nM
O=C(O)C[C@H](O)C[C@H](O)/C=C/c1c2c(nn1-c1ccc(F)cc1)C(Cc1cccc3ccccc13)CCC2 (stereo partly drawn) [Compound 11],IC50,HMG-CoA reductase; Table III,26 nM
same,IC50,"Hep-G2 cells; HepG2, Table III",370 nM
O=C(O)C[C@H](O)C[C@H](O)/C=C/c1c2c(nn1-c1ccc(F)cc1)C(CC=Cc1ccccc1)CCC2 (stereo partly drawn) [Compound 34],IC50,HMG-CoA reductase; Table III,32 nM
same,IC50,"Hep-G2 cells; HepG2, Table III",1300 nM
CC(C)c1ccc(CC2CCCc3c2nn(-c2ccc(F)cc2)c3/C=C/[C@@H](O)C[C@@H](O)CC(=O)O)cc1 (stereo partly drawn) [Compound 18],IC50,HMG-CoA reductase; Table III,14 nM
same,IC50,"Hep-G2 cells; HepG2, Table III",260 nM
